Experimental data reported in article PMC5218480 (PLoS ONE, 2017).

Test system: MV-4-11 cells
Assay: Gene expression microarray analysis (Affymetrix PrimeView) and GSEA
Format: cell-based, human
Parameters: RFU PODN (11730768_x_at) / Fold change /veh PODN (11730768_x_at) / RFU LINC00158 (11744669_a_at) / Fold change /veh LINC00158 (11744669_a_at) / RFU DUSP10 (11751237_a_at) / Fold change /veh DUSP10 (11751237_a_at) / RFU ID3 (11757404_x_at) / Fold change /veh ID3 (11757404_x_at) / RFU PLEKHG5 (11737974_s_at) / Fold change /veh PLEKHG5 (11737974_s_at) / RFU LRRC4B (11730491_at) / Fold change /veh LRRC4B (11730491_at) / RFU GIMAP4 (11747438_a_at) / Fold change /veh GIMAP4 (11747438_a_at) / RFU KRT8 (11758183_x_at) / Fold change /veh KRT8 (11758183_x_at) / RFU CNN1 (11734310_a_at) / Fold change /veh CNN1 (11734310_a_at) / RFU VPS37D (11726825_at) / Fold change /veh VPS37D (11726825_at) / RFU C10orf10 (11716522_x_at) / Fold change /veh C10orf10 (11716522_x_at) / RFU KIR2DL2 /// KIR2DL4 /// KIR2DL5A /// KIR2DL5B /// KIR2DS1 /// KIR2DS2 /// KIR2DS3 /// KIR2DS4 /// KIR3DL3 /// KIR3DL3 /// KIR3DS1 (11738374_at) / Fold change /veh KIR2DL2 /// KIR2DL4 /// KIR2DL5A /// KIR2DL5B /// KIR2DS1 /// KIR2DS2 /// KIR2DS3 /// KIR2DS4 /// KIR3DL3 /// KIR3DL3 /// KIR3DS1 (11738374_at) / RFU C1QL1 (11718748_at) / Fold change /veh C1QL1 (11718748_at) / RFU TMPRSS4 (11747572_a_at) / Fold change /veh TMPRSS4 (11747572_a_at) / RFU HAMP (11756126_x_at) / Fold change /veh HAMP (11756126_x_at) / RFU RNFT2 (11725882_a_at) / Fold change /veh RNFT2 (11725882_a_at) / RFU NR4A2 (11747474_a_at) / Fold change /veh NR4A2 (11747474_a_at) / RFU ABCC12 (11746883_a_at) / Fold change /veh ABCC12 (11746883_a_at) / RFU TMEM136 (11760407_x_at) / Fold change /veh TMEM136 (11760407_x_at) / RFU CLDN22 /// WWC2 (11732394_at) / Fold change /veh CLDN22 /// WWC2 (11732394_at) / RFU HLA-DPB1 (11760878_x_at) / Fold change /veh HLA-DPB1 (11760878_x_at) / RFU SPINT1 (11716480_a_at) / Fold change /veh SPINT1 (11716480_a_at) / RFU GAP43 (11754022_s_at) / Fold change /veh GAP43 (11754022_s_at) / RFU A4GNT (11735810_at) / Fold change /veh A4GNT (11735810_at) / RFU PRB3 (11715151_x_at) / Fold change /veh PRB3 (11715151_x_at) / RFU TUBB4B (11761932_at) / Fold change /veh TUBB4B (11761932_at) / RFU CAPN14 (11732068_a_at) / Fold change /veh CAPN14 (11732068_a_at) / RFU TMCC2 (11721928_a_at) / Fold change /veh TMCC2 (11721928_a_at) / RFU IRGQ (11745062_a_at) / Fold change /veh IRGQ (11745062_a_at) / RFU FAM174B (11720279_a_at) / Fold change /veh FAM174B (11720279_a_at) / RFU TMPRSS4 (11748680_a_at) / Fold change /veh TMPRSS4 (11748680_a_at) / RFU FAM212B (11763350_a_at) / Fold change /veh FAM212B (11763350_a_at) / RFU PLEKHG5 (11743358_a_at) / Fold change /veh PLEKHG5 (11743358_a_at) / RFU ZSCAN30 (11745921_a_at) / Fold change /veh ZSCAN30 (11745921_a_at) / RFU CMKLR1 (11741424_a_at) / Fold change /veh CMKLR1 (11741424_a_at) / RFU LOC101060620 /// MAPK8IP1 (11723275_at) / Fold change /veh LOC101060620 /// MAPK8IP1 (11723275_at) / RFU SPTSSB (11747773_x_at) / Fold change /veh SPTSSB (11747773_x_at) / RFU PRSS12 (11739890_at) / Fold change /veh PRSS12 (11739890_at) / RFU BIN1 (11741810_x_at) / Fold change /veh BIN1 (11741810_x_at) / RFU WNT11 (11732464_a_at) / Fold change /veh WNT11 (11732464_a_at) / RFU C10orf10 (11716521_a_at) / Fold change /veh C10orf10 (11716521_a_at) / RFU C5orf56 (11738089_at) / Fold change /veh C5orf56 (11738089_at) / RFU CYB561 (11721691_x_at) / Fold change /veh CYB561 (11721691_x_at) / RFU ANKRD19P (11752326_a_at) / Fold change /veh ANKRD19P (11752326_a_at) / RFU OR2T12 /// OR2T33 /// OR2T8 (11738714_s_at) / Fold change /veh OR2T12 /// OR2T33 /// OR2T8 (11738714_s_at) / RFU VCAN (11748164_a_at) / Fold change /veh VCAN (11748164_a_at) / RFU JSRP1 (11732532_at) / Fold change /veh JSRP1 (11732532_at) / RFU KRTAP10-11 (11738290_x_at) / Fold change /veh KRTAP10-11 (11738290_x_at) / RFU MYO3A (11730013_a_at) / Fold change /veh MYO3A (11730013_a_at) / RFU EBF3 (11725865_a_at) / Fold change /veh EBF3 (11725865_a_at) / RFU CAMK2N1 (11719241_x_at) / Fold change /veh CAMK2N1 (11719241_x_at) / RFU C5orf56 (11738088_a_at) / Fold change /veh C5orf56 (11738088_a_at) / RFU OLFML3 (11715873_a_at) / Fold change /veh OLFML3 (11715873_a_at) / RFU LOC100653217 /// NTM (11731650_a_at) / Fold change /veh LOC100653217 /// NTM (11731650_a_at) / RFU MAPK11 (11762145_a_at) / Fold change /veh MAPK11 (11762145_a_at) / RFU FIZ1 (11724087_x_at) / Fold change /veh FIZ1 (11724087_x_at) / RFU OASL (11726364_x_at) / Fold change /veh OASL (11726364_x_at) / RFU SOX15 (11748057_x_at) / Fold change /veh SOX15 (11748057_x_at) / RFU CD79A (11719716_a_at) / Fold change /veh CD79A (11719716_a_at) / RFU HIST1H1D (11736915_at) / Fold change /veh HIST1H1D (11736915_at) / RFU CASKIN2 (11723855_a_at) / Fold change /veh CASKIN2 (11723855_a_at) / RFU LOC730098 (11760151_x_at) / Fold change /veh LOC730098 (11760151_x_at) / RFU OR4N2 (11742367_at) / Fold change /veh OR4N2 (11742367_at) / RFU PRRT2 (11749266_a_at) / Fold change /veh PRRT2 (11749266_a_at) / RFU SNX32 (11753110_a_at) / Fold change /veh SNX32 (11753110_a_at) / RFU CDHR5 (11726645_a_at) / Fold change /veh CDHR5 (11726645_a_at) / RFU RCAN1 (11760418_a_at) / Fold change /veh RCAN1 (11760418_a_at) / RFU FAM167A (11723789_a_at) / Fold change /veh FAM167A (11723789_a_at) / RFU FAM26E (11764081_at) / Fold change /veh FAM26E (11764081_at) / RFU ISYNA1 (11749810_s_at) / Fold change /veh ISYNA1 (11749810_s_at) / RFU ACY1 (11761880_at) / Fold change /veh ACY1 (11761880_at) / RFU 11764098_at / Fold change /veh 11764098_at / RFU SAMD14 (11745864_x_at) / Fold change /veh SAMD14 (11745864_x_at) / RFU NPB (11741838_a_at) / Fold change /veh NPB (11741838_a_at) / RFU TMPRSS6 (11731388_a_at) / Fold change /veh TMPRSS6 (11731388_a_at) / RFU KRTAP10-2 (11738614_at) / Fold change /veh KRTAP10-2 (11738614_at) / RFU ARHGAP8 /// PRR5-ARHGAP8 (11727945_x_at) / Fold change /veh ARHGAP8 /// PRR5-ARHGAP8 (11727945_x_at) / RFU KRTAP5-7 /// NADSYN1 (11734609_at) / Fold change /veh KRTAP5-7 /// NADSYN1 (11734609_at) / RFU RASL12 (11751679_a_at) / Fold change /veh RASL12 (11751679_a_at) / RFU CDKN2B (11736163_a_at) / Fold change /veh CDKN2B (11736163_a_at) / RFU PRF1 (11729649_at) / Fold change /veh PRF1 (11729649_at) / RFU, ZNF638 /// ZNF638-IT1 / Fold change vs veh, ZNF638 /// ZNF638-IT1 / RFU, PANK3 / Fold change vs veh, PANK3 / RFU, SH3YL1 / Fold change vs veh, SH3YL1 / RFU, ZEB2 / Fold change vs veh, ZEB2 / RFU, NRIP1 / Fold change vs veh, NRIP1 / RFU, PTTG1IP / Fold change vs veh, PTTG1IP / RFU, CAPN2 / Fold change vs veh, CAPN2 / RFU, MED14 / Fold change vs veh, MED14 / RFU, SNORA58 / Fold change vs veh, SNORA58 / RFU, C1orf63 / Fold change vs veh, C1orf63 / RFU, LRRFIP1 / Fold change vs veh, LRRFIP1 / RFU, NDUFAF7 / Fold change vs veh, NDUFAF7 / RFU, SLC12A2 / Fold change vs veh, SLC12A2 / RFU, IBTK / Fold change vs veh, IBTK / RFU, ESF1 / Fold change vs veh, ESF1 / Fold change vs veh, TMEM50B / RFU, TAOK1 / Fold change vs veh, TAOK1 / RFU, ACBD3 / Fold change vs veh, ACBD3 / RFU, TMA16 / Fold change vs veh, TMA16 / RFU, RWDD3 / Fold change vs veh, RWDD3 / RFU, BCAT1 / Fold change vs veh, BCAT1 / RFU, EDEM3 / Fold change vs veh, EDEM3 / RFU, TMEM33 / Fold change vs veh, TMEM33 / RFU, WDR75 / Fold change vs veh, WDR75 / RFU, AHCTF1 / Fold change vs veh, AHCTF1 / RFU, TFRC / Fold change vs veh, TFRC / RFU, ZDHHC17 / Fold change vs veh, ZDHHC17 / RFU, NOM1 / Fold change vs veh, NOM1 / RFU, ARL8B / Fold change vs veh, ARL8B / RFU, ZBTB11 / Fold change vs veh, ZBTB11 / RFU, TAMM41 / Fold change vs veh, TAMM41 / RFU, KIAA1704 /// LOC100996395 / Fold change vs veh, KIAA1704 /// LOC100996395 / RFU, ING1 / Fold change vs veh, ING1 / RFU, TRMT61B / Fold change vs veh, TRMT61B / RFU, FUBP3 / Fold change vs veh, FUBP3 / RFU, TP53 / Fold change vs veh, TP53 / RFU, TNKS2 / Fold change vs veh, TNKS2 / RFU, ZFP14 / Fold change vs veh, ZFP14 / RFU, ACTR2 / Fold change vs veh, ACTR2 / RFU, PPP3R1 / Fold change vs veh, PPP3R1 / RFU, PIK3R1 / Fold change vs veh, PIK3R1 / RFU, HNRNPA1 / Fold change vs veh, HNRNPA1 / RFU, RNF170 / Fold change vs veh, RNF170 / RFU, ZNF28 / Fold change vs veh, ZNF28 / RFU, RNGTT / Fold change vs veh, RNGTT / RFU, OGT / Fold change vs veh, OGT / RFU, BRD1 / Fold change vs veh, BRD1 / RFU, MARS / Fold change vs veh, MARS / RFU, ZNF655 / Fold change vs veh, ZNF655 / RFU, FAHD1 / Fold change vs veh, FAHD1 / RFU, BDP1 / Fold change vs veh, BDP1 / RFU, LRRCC1 / Fold change vs veh, LRRCC1 / RFU, ARID1A / Fold change vs veh, ARID1A / RFU, ZNF146 / Fold change vs veh, ZNF146 / RFU, ZNF330 / Fold change vs veh, ZNF330 / RFU, GPN3 / Fold change vs veh, GPN3 / RFU, C9orf123 / Fold change vs veh, C9orf123 / RFU, N4BP2L2 / Fold change vs veh, N4BP2L2 / RFU, ARFIP1 / Fold change vs veh, ARFIP1 / RFU, FAM179B / Fold change vs veh, FAM179B / RFU, BCL10 / Fold change vs veh, BCL10 / RFU, UHRF1BP1L / Fold change vs veh, UHRF1BP1L / RFU, BET1 / Fold change vs veh, BET1 / RFU, CNOT2 / Fold change vs veh, CNOT2 / RFU, ZNF268 / Fold change vs veh, ZNF268 / Fold change vs veh, ZNF507 / RFU, DGCR2 / Fold change vs veh, DGCR2 / RFU, WDSUB1 / Fold change vs veh, WDSUB1 / Fold change vs veh, HSP90B1 /// MIR3652 / RFU, ADSS / Fold change vs veh, ADSS / RFU, GK / Fold change vs veh, GK / RFU, ZNF148 / Fold change vs veh, ZNF148 / RFU, TAF9 / Fold change vs veh, TAF9 / RFU, SLC1A5 / Fold change vs veh, SLC1A5 / RFU, SLMO2 / Fold change vs veh, SLMO2 / RFU, ABCC4 / Fold change vs veh, ABCC4 / RFU, LOC101060439 /// RAP1B / Fold change vs veh, LOC101060439 /// RAP1B / RFU, RFX7 / Fold change vs veh, RFX7 / RFU, GTPBP10 / Fold change vs veh, GTPBP10 / RFU, CNEP1R1 / Fold change vs veh, CNEP1R1 / RFU, BIVM-ERCC5 /// ERCC5 / Fold change vs veh, BIVM-ERCC5 /// ERCC5 / RFU, ILF3 / Fold change vs veh, ILF3 / RFU 11762660_at / Fold change /veh 11762660_at / RFU VCAN (11757783_s_at) / Fold change /veh VCAN (11757783_s_at) / RFU DDX43 (11728927_at) / Fold change /veh DDX43 (11728927_at) / RFU KRT8 (11758188_x_at) / Fold change /veh KRT8 (11758188_x_at) / RFU NKD1 (11759106_at) / Fold change /veh NKD1 (11759106_at) / RFU SRD5A1 (11742802_a_at) / Fold change /veh SRD5A1 (11742802_a_at) / RFU TPSAB1 /// TPSB2 (11721975_s_at) / Fold change /veh TPSAB1 /// TPSB2 (11721975_s_at) / RFU GSTM3 (11746129_a_at) / Fold change /veh GSTM3 (11746129_a_at) / RFU IL23R (11737362_x_at) / Fold change /veh IL23R (11737362_x_at) / RFU TMEM51 (11727254_a_at) / Fold change /veh TMEM51 (11727254_a_at) / RFU PIWIL2 (11732686_x_at) / Fold change /veh PIWIL2 (11732686_x_at) / RFU ORM1 (11744905_x_at) / Fold change /veh ORM1 (11744905_x_at) / RFU CCDC152 (11743942_at) / Fold change /veh CCDC152 (11743942_at) / RFU ECM1 (11717891_a_at) / Fold change /veh ECM1 (11717891_a_at) / RFU IL23R (11748794_a_at) / Fold change /veh IL23R (11748794_a_at) / RFU TNFAIP8L3 (11732012_x_at) / Fold change /veh TNFAIP8L3 (11732012_x_at) / RFU MBOAT4 (11741988_at) / Fold change /veh MBOAT4 (11741988_at) / RFU 11764193_at / Fold change /veh 11764193_at / RFU TMEM53 (11763286_at) / Fold change /veh TMEM53 (11763286_at) / RFU MAGEB2 (11727129_at) / Fold change /veh MAGEB2 (11727129_at) / RFU TMEM200A (11744735_a_at) / Fold change /veh TMEM200A (11744735_a_at) / RFU CCDC152 (11751479_a_at) / Fold change /veh CCDC152 (11751479_a_at) / RFU FAM211A (11726209_a_at) / Fold change /veh FAM211A (11726209_a_at) / RFU RGS16 (11746705_a_at) / Fold change /veh RGS16 (11746705_a_at) / RFU VCAN (11755009_s_at) / Fold change /veh VCAN (11755009_s_at) / RFU RHOB (11743442_s_at) / Fold change /veh RHOB (11743442_s_at) / RFU RGS16 (11720943_a_at) / Fold change /veh RGS16 (11720943_a_at) / RFU RGS16 (11720944_at) / Fold change /veh RGS16 (11720944_at) / RFU, VPS4B / Fold change vs veh, VPS4B / RFU, CREB1 / Fold change vs veh, CREB1 / RFU, DNAJC13 / Fold change vs veh, DNAJC13 / RFU, GNAQ / Fold change vs veh, GNAQ / RFU, CDK5R1 / Fold change vs veh, CDK5R1 / RFU, ZRANB3 / Fold change vs veh, ZRANB3 / RFU, CUL4A / Fold change vs veh, CUL4A / RFU, CCNY / Fold change vs veh, CCNY / RFU, UFL1 / Fold change vs veh, UFL1 / RFU, COG3 / Fold change vs veh, COG3 / RFU, DIAPH2 / Fold change vs veh, DIAPH2 / RFU, SKA2 / Fold change vs veh, SKA2 / RFU, AFF3 / Fold change vs veh, AFF3 / RFU, LMF1 / Fold change vs veh, LMF1 / RFU, IPO11 / Fold change vs veh, IPO11 / RFU, DFFB / Fold change vs veh, DFFB / RFU, FOXP1 / Fold change vs veh, FOXP1 / RFU, CARD8 / Fold change vs veh, CARD8 / RFU, STRN3 / Fold change vs veh, STRN3 / RFU, ADK / Fold change vs veh, ADK / RFU, RASSF2 / Fold change vs veh, RASSF2 / RFU, WIPF1 / Fold change vs veh, WIPF1 / RFU, LARP1B / Fold change vs veh, LARP1B / RFU, RASA1 / Fold change vs veh, RASA1 / RFU, RB1 / Fold change vs veh, RB1 / RFU, PPFIA1 / Fold change vs veh, PPFIA1 / RFU, MAT2A / Fold change vs veh, MAT2A / RFU, CCT5 / Fold change vs veh, CCT5 / RFU, WDR92 / Fold change vs veh, WDR92 / RFU, CUX1 / Fold change vs veh, CUX1 / RFU, TTC7A / Fold change vs veh, TTC7A / RFU, TMEM135 / Fold change vs veh, TMEM135 / RFU, DEPTOR / Fold change vs veh, DEPTOR / RFU, CPM / Fold change vs veh, CPM / RFU, DNAJB6 / Fold change vs veh, DNAJB6 / RFU, CACNA2D3 / Fold change vs veh, CACNA2D3 / RFU, DTX4 / Fold change vs veh, DTX4 / RFU, TFCP2 / Fold change vs veh, TFCP2 / RFU, GMCL1 /// GMCL1P1 / Fold change vs veh, GMCL1 /// GMCL1P1 / RFU, AEBP2 / Fold change vs veh, AEBP2 / RFU, SNHG1 /// SNORD22 /// SNORD25 /// SNORD26 /// SNORD27 /// SNORD28 /// SNORD29 /// SNORD31 / Fold change vs veh, SNHG1 /// SNORD22 /// SNORD25 /// SNORD26 /// SNORD27 /// SNORD28 /// SNORD29 /// SNORD31 / Fold change (Aza/veh), C12orf56 (ProbeSet 11735607_a_at) / Fold change (ACY-1035/veh), C12orf56 (ProbeSet 11735607_a_at) / Fold change (Aza/veh), FGFR1OP (ProbeSet 11751329_s_at) / Fold change (ACY-1035/veh), FGFR1OP (ProbeSet 11751329_s_at) / Fold change (Aza/veh), VPS36 (ProbeSet 11739960_a_at) / Fold change (ACY-1035/veh), VPS36 (ProbeSet 11739960_a_at) / RFU SYPL1 (11715823_x_at) / Fold change /veh SYPL1 (11715823_x_at) / RFU IGFBP7 (11715501_s_at) / Fold change /veh IGFBP7 (11715501_s_at) / RFU REEP3 (11722064_at) / Fold change /veh REEP3 (11722064_at) / RFU IGLL1 (11728026_x_at) / Fold change /veh IGLL1 (11728026_x_at): dose or concentration left out as unconfirmed
Details: MV-4-11 cells, 48 hours

Nc1ncn([C@@H]2O[C@H](CO)[C@@H](O)[C@H]2O)c(=O)n1 [azacitidine]
RFU IL23R (11748794_a_at): 8.76 RFU
